Measurements reported in patent publication US4053478A, “2,5-Di-substituted 4-oxazolealkanoic acids and esters” (Yoshitomi Pharmaceutical Industries, Ltd., priority 1974, dated 1977).

What was measured:
[1] = tested on: bleeding time induced by platelet thrombi; experiment: Anti-thrombotic action: bleeding time induced by platelet thrombi, tail vein puncture (Table 4); assay type: in vivo; conditions: oral, one hour after administration, male mice
Procedure: The bleeding time induced by platelet thrombi was compared with that of the control group, and the rate of prolongation was calculated as an index of anti-thrombotic activity.

[2] = tested on: serum cholesterol level; experiment: Hypolipidemic action: dietary hyperlipidemia in male mice (Table 2); assay type: in vivo, dd-strain male mice; conditions: 5 days
Procedure: ii. Dietary hyperlipidemia in male mice (Table 2)
dd-Strain male mice weighing 20-25 g. were used. Each group was composed of 8 mice. Animals were fed with NMF food (Oriental Yeast Co., Tokyo) containing 1% of cholesterol, 0.2% of cholic acid and 5% of olive oil, and the serum cholesterol level was measured by the use of an autoanalyzer after 5 days administration of the test compound. The levels in the test group was compared with that in the control group given the same diet.

[3] = Acute toxicity, rat (Table 5); conditions: in vivo, oral, lethality within two days, read-out: LD50 per os, Rat
Procedure: (§1) The test compound was orally administered to groups each of 5 male mice and rats respectively. The LD50 was calculated from the lethal rate (50%) within two days after administration of the test compound.

[4] = tested on: serum cholesterol and triglyceride levels; experiment: Hypolipidemic action: male rats with normal serum lipid (Table 1); assay type: in vivo, Wistar strain male rats; conditions: 100 mg/kg/day, oral (gastric tube), 5 days, vs control
Procedure: i. Male rats with normal serum lipid (Table 1)
Each test group was composed of more than 5 rats. The test compound was orally given by a gastric tube. Serum cholesterol and triglyceride levels were measured by the standard methods using an autoanalyzer (Technicon Inc.). The levels in the control (placebo) group were considered as 100% and the reduction (%) in the test group was calculated.

[5] = Acute toxicity, mouse (Table 5); conditions: in vivo, oral, lethality within two days, read-out: LD50 per os, Mouse
Procedure: as §1

[6] = tested on: serum cholesterol level; experiment: Hypolipidemic action: Triton hyperlipidemia in male mice (Table 3); assay type: in vivo, dd-strain male mice; conditions: intraperitoneal, 18 hours after Triton
Procedure: iii. Triton hyperlipidemia in male mice (Table 3) Each group was composed of eight dd-strain male mice weighing 20-25 g. Immediately after intraperitoneal administration of the test compound to the animals, Triton WR-1339 was intraveniously given. Eighteen hours after Triton administration, the serum cholesterol level was measured and compared with that of the control group treated in the same way.

| SMILES | Prolongation Rate (%) of the Bleeding Time ([1]; 12.5 mg/kg/day) | Prolongation Rate (%) of the Bleeding Time ([1]; 25 mg/kg/day) | Prolongation Rate (%) of the Bleeding Time ([1]; 50 mg/kg/day) | Lowering Rate (%) of Serum Cholesterol Level ([2]; 100 mg/kg/day) | LD50 at 48 h [3] | Lowering Rate (%) of Serum Cholesterol Level [4] | Lowering Rate (%) of Serum Triglyceride Level [4] | LD50 at 48 h [5] | Lowering Rate (%) of Serum Cholesterol Level ([6]; 25 mg/kg/day) | Lowering Rate (%) of Serum Cholesterol Level ([6]; 100 mg/kg/day) | Lowering Rate (%) of Serum Cholesterol Level ([2]; 50 mg/kg/day) | Prolongation Rate (%) of the Bleeding Time ([1]; 100 mg/kg/day) | Lowering Rate (%) of Serum Cholesterol Level ([6]; 50 mg/kg/day) |
| --- | --- | --- | --- | --- | --- | --- | --- | --- | --- | --- | --- | --- | --- |
| CC(=O)Oc1ccccc1C(=O)O [Acetylsalicylic Acid, reference compound] | 22% | 65% | 268% |  |  |  |  |  |  |  |  |  |  |
| CCOc1oc(-c2ccc(Cl)cc2)nc1CC(=O)OCc1cccnc1 [B, 3-pyridylmethyl 2-p-chlorophenyl-5-ethoxy-4-oxazoleacetate] |  |  |  | 43% | > 4000 mg/kg | 22% | 41% | > 4000 mg/kg |  |  |  |  |  |
| CCOC(=O)Cc1nc(-c2ccc(Cl)c(Cl)c2)oc1OCC [C, ethyl 2-(3,4-dichlorophenyl)-5-ethoxy-4-oxazoleacetate] |  |  |  |  | > 4000 mg/kg |  |  | 2000 mg/kg | 18% | 35% |  |  |  |
| CCOC(=O)C(C)(C)Oc1ccc(Cl)cc1 [Clofibrate, reference compound] |  |  |  | 16% | 2300 mg/kg | 31% | 35% | 1500 mg/kg |  | 10% | 0% | 38% |  |
| CCOC(=O)Cc1nc(-c2ccc(Cl)cc2)oc1OCC [Compound A, ethyl 2-p-chlorophenyl-5-ethoxy-4-oxazoleacetate] |  |  |  | 41% | > 4000 mg/kg | 25% | 45% | 4000 mg/kg |  | 32% | 21% |  | 26% |
| CCOc1oc(-c2ccncc2)nc1CCC(=O)O [D, 3-[2-(4-pyridyl)-5-ethoxy-4-oxazole]propionic acid] | 107% | 209% | 321% |  | > 2000 mg/kg |  |  | > 2000 mg/kg |  |  |  | 439% |  |
